Test results as given in paper PMC6005765 (Bioorganic & medicinal chemistry letters, 2018).
Non-standard residues stand in square brackets, D forms with d. Residues, ends and D or L forms follow the SMILES beside them. Phe(2-Ph) = N[C@@H](Cc1ccccc1-c1ccccc1)C(=O)O; Bip = N[C@@H](Cc1ccc(-c2ccccc2)cc1)C(=O)O; Dmt = Cc1cc(O)cc(C)c1C[C@H](N)C(=O)O

Key:
[1] = tested on: guinea pig ileum (GPI), MOP; details: for Functional character in GPI assay: in vitro; for IC50: read-out: IC50 (GPI), agonist potency
[2] = target: μ opioid receptor (MOP) (Homo sapiens, UniProt P35372); assay type: binding; details: for Selectivity IC50δ/IC50μ: ratio DOP IC50 / MOP IC50
[3] = target: δ opioid receptor (DOP) (Homo sapiens, UniProt P41143); assay type: binding
[4] = target: MOP (Homo sapiens, UniProt P35372); assay: EPAC cAMP BRET-based biosensor assay, MOP; assay type: cell-based
[5] = target: DOP (Homo sapiens, UniProt P41143); assay: EPAC cAMP BRET-based biosensor assay, DOP; assay type: cell-based
[6] = tested on: rats; assay: Tail-flick test on rats after intrathecal administration; assay type: in vivo, rat
[7] = target: μ opioid receptor (UniProt P35372)
[8] = target: δ opioid receptor (UniProt P41143)

MOP, sequence (P35372 whole entry): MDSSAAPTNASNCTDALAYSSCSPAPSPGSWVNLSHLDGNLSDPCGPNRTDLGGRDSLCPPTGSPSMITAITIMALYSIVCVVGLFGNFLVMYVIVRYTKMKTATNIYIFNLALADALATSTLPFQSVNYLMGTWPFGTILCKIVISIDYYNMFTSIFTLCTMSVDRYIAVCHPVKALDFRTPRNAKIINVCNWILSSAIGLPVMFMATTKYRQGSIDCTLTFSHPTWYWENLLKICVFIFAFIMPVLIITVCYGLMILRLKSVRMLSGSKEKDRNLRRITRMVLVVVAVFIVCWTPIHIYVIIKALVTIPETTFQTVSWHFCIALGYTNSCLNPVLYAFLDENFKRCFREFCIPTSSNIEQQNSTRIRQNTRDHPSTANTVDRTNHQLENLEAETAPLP
μ opioid receptor (MOP), sequence (P35372 whole entry, species assumed): as the sequence (P35372 whole entry) above

Molecule | IC50 [2] | Selectivity IC50δ/IC50μ [2] | IC50 [3] | IC50 [1] | EC50 [4] | EC50 [5] | Duration of analgesic action on thermal nociception [6] | other results
Cc1cc(O)cc(C)c1C[C@H](N)C(=O)N[C@H](CCCNC(=N)N)C(=O)N[C@@H](Cc1ccc(-c2ccccc2)cc1)C(=O)NCC(N)=O [Compound 1, Dmt-D-Arg-Phe(4-phenyl)-Gly-NH2] (H-[Dmt][dR][Bip]G-NH2) |  |  |  |  |  |  |  | Functional character in GPI assay [1]: μ-opioid antagonism
Cc1cc(O)cc(C)c1C[C@H](N)C(=O)N[C@H](CCCNC(=N)N)C(=O)N[C@@H](Cc1ccc(-c2ccsc2)cc1)C(=O)NCC(N)=O [Compound 4, Dmt-D-Arg-Phe(4-(3-thienyl))-Gly-NH2] |  |  |  |  |  |  |  | Functional character in GPI assay [1]: μ-opioid antagonism
Cc1cc(O)cc(C)c1C[C@H](N)C(=O)N[C@H](CCCNC(=N)N)C(=O)N[C@@H](Cc1ccccc1-c1ccc(Cl)cc1)C(=O)NCC(N)=O [Compound 13, Dmt-D-Arg-Phe(2-(4-Cl-phenyl))-Gly-NH2] | 0.35 ± 0.06 nM | 989 | 346 ± 10 nM | 2.39 ± 0.09 nM |  |  |  | 
Cc1cc(O)cc(C)c1C[C@H](N)C(=O)N[C@H](CCCNC(=N)N)C(=O)N[C@@H](Cc1ccccc1)C(=O)NCC(N)=O [Compound 19, Dmt-D-Arg-Phe-Gly-NH2] (H-[Dmt][dR]FG-NH2) | 0.1 ± 0.06 nM | 140 | 14 ± 2.7 nM | 2.26 ± 0.37 nM | 0.008 ± 0.002 nM | 1.13 ± 0.2 nM | exceeding 60 min | Fold increase in MOP affinity compared to DAMGO [2]: 10 fold; Effectiveness in reversing nociceptive behavior relative to DAMGO [6]: 10 times
Cc1cc(O)cc(C)c1C[C@H](N)C(=O)N[C@H](CCCNC(=N)N)C(=O)N[C@@H](Cc1ccccc1-c1ccc(C(F)(F)F)cc1)C(=O)NCC(N)=O [Compound 11, Dmt-D-Arg-Phe(2-(4-CF3-phenyl))-Gly-NH2] | 0.07 ± 0.09 nM | 560 | 39.2 ± 17 nM | 1.26 ± 0.17 nM | 0.12 ± 0.05 nM | 26.8 ± 6 nM |  | 
DAMGO (peptide) |  |  |  |  |  |  |  | IC50 in the guinea pig ileum (GPI) assay [7]: 28.3 nM; EPAC DOP EC50 (EPAC cAMP BRET-based biosensor assay) [8]: 49 nM
COc1ccc(-c2ccccc2C[C@H](NC(=O)[C@@H](CCCNC(=N)N)NC(=O)[C@@H](N)Cc2c(C)cc(O)cc2C)C(=O)NCC(N)=O)cc1 [Compound 10, Dmt-D-Arg-Phe(2-(4-MeO-phenyl))-Gly-NH2] | 0.47 ± 0.24 nM | 149 | 70.2 ± 27.2 nM | 0.901 ± 0.224 nM |  |  |  | 
Cc1cc(O)cc(C)c1C[C@H](N)C(=O)N[C@H](C)C(=O)N[C@@H](Cc1ccccc1-c1ccccc1)C(=O)NCC(N)=O [Compound 15, Dmt-D-Ala-Phe(2-phenyl)-Gly-NH2] (H-[Dmt][dA][Phe(2-Ph)]G-NH2) |  |  |  |  |  |  | exceeding 60 min | 
Cc1cc(O)cc(C)c1C[C@H](N)C(=O)N[C@H](C)C(=O)N[C@@H](Cc1ccccc1)C(=O)NCC(N)=O [Compound 20, Dmt-D-Ala-Phe-Gly-NH2] (H-[Dmt][dA]FG-NH2) | 0.14 ± 0.05 nM | 161 | 22.6 ± 4.6 nM | 1.5 ± 0.12 nM | 0.012 ± 0.0007 nM | 2.4 ± 1 nM | exceeding 60 min | Fold increase in MOP affinity compared to DAMGO [2]: 10 fold; Effectiveness in reversing nociceptive behavior relative to DAMGO [6]: 10 times
C=Cc1ccccc1C[C@H](NC(=O)[C@@H](C)N(C)C(=O)[C@@H](N)Cc1c(C)cc(O)cc1C)C(=O)NCC(N)=O [Compound 18, Dmt-N-Me-D-Ala-Phe(2-vinyl)-Gly-NH2] | 0.36 ± 0.09 nM | 165 | 59.4 ± 0.8 nM | 0.641 ± 0.045 nM | 0.003 ± 0.004 nM | 4.4 ± 2 nM |  | 
CC(C)=Cc1ccccc1C[C@H](NC(=O)[C@@H](CCCNC(=N)N)NC(=O)[C@@H](N)Cc1c(C)cc(O)cc1C)C(=O)NCC(N)=O [Compound 14] |  |  |  |  |  |  | exceeding 60 min | 
Cc1cc(O)cc(C)c1C[C@H](N)C(=O)N[C@H](CCCNC(=N)N)C(=O)N[C@@H](Cc1ccccc1-c1ccc(F)cc1)C(=O)NCC(N)=O [Compound 12, Dmt-D-Arg-Phe(2-(4-F-phenyl))-Gly-NH2] | 0.47 ± 0.06 nM | 925 | 435 ± 26 nM | 0.801 ± 0.086 nM |  |  |  | 
